From patent publication US20220323406A1, “METHODS AND COMPOSITIONS FOR DIFFERENTIATING STEM CELLS” (Massachusetts Institute of Technology, priority 2019, published 2022)
Where a name gives a salt, the structure may show the parent alone.

Experiments:
[1] = tested on: ENR+CD organoids (ISC to Paneth cell differentiation); assay: Primary screen: basal (non-stimulated) lysozyme secretion LYZ.NS, 2.5-D 384-well ENR+CD organoid differentiation; type: cell-based, mouse; settings: primary screen; for Z.LYZ.NS: standard z score
Source text: (§1) High-throughput screening.

[2] = tested on: ENR+CD organoids (ISC to Paneth cell differentiation); assay: Primary screen: CCh-stimulated lysozyme secretion LYZ.S, 2.5-D 384-well ENR+CD organoid differentiation; type: cell-based, mouse; settings: primary screen
Source text: as §1

ENR+CD organoids = assay: Primary screen: ATP (CellTiter-Glo 3D, CTG) cell number/viability, 2.5-D 384-well ENR+CD organoids; settings: primary screen;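 also: compounds given at plating and again on day 3 over a 6-day differentiation from ENR+CV stem-cell-enriched precursors, ATP measured on day 6, plate median as control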

SMILES | Dose.FC.LYZ.NS (log2 fold change) ([1]; dose 0.08 uM) | Z.LYZ.NS (standard z score) ([1]; dose 0.08 uM) | Dose.FC.LYZ.NS (log2 fold change) ([1]; dose 0.40 uM) | Z.LYZ.NS (standard z score) ([1]; dose 0.40 uM) | Dose.FC.LYZ.NS (log2 fold change) ([1]; dose 2.00 uM) | Z.LYZ.NS (standard z score) ([1]; dose 2.00 uM) | Dose.FC.LYZ.NS (log2 fold change) ([1]; dose 10.00 uM) | Z.LYZ.NS (standard z score) ([1]; dose 10.00 uM) | Dose.FC.LYZ.S (log2 fold change) ([2]; dose 0.08 uM) | Dose.FC.LYZ.S (log2 fold change) ([2]; dose 0.40 uM) | Dose.FC.LYZ.S (log2 fold change) ([2]; dose 2.00 uM) | Dose.FC.LYZ.S (log2 fold change) ([2]; dose 10.00 uM) | Dose.FC.CTG (log2 fold change) (ENR+CD organoids; dose 0.08 uM) | Z.CTG (standard z score) (ENR+CD organoids; dose 0.08 uM) | Dose.FC.CTG (log2 fold change) (ENR+CD organoids; dose 0.40 uM) | Z.CTG (standard z score) (ENR+CD organoids; dose 0.40 uM) | Dose.FC.CTG (log2 fold change) (ENR+CD organoids; dose 2.00 uM) | Z.CTG (standard z score) (ENR+CD organoids; dose 2.00 uM) | Dose.FC.CTG (log2 fold change) (ENR+CD organoids; dose 10.00 uM) | Z.CTG (standard z score) (ENR+CD organoids; dose 10.00 uM) | other results
Cc1noc(-c2ccc(CSCCC(=O)O)cc2)c1NC(=O)OC(C)c1ccccc1Cl (stereo not drawn) [Ki16425] | 0.001 | 0.005 | 0.117 | 1.017 | −0.008 | −0.069 | −0.038 | −0.327 | 0.022 | 0.114 | −0.021 | −0.071 | −0.051 | −0.121 | −0.002 | −0.005 | −0.078 | −0.185 | −0.165 | −0.394 | 
COCCCC/C(=N\OCCN)c1ccc(C(F)(F)F)cc1 [Fluvoxamine maleate] |  |  |  |  |  |  |  |  |  |  |  |  |  |  |  |  |  |  |  |  | Dose.FC.LYZ.NS ([1]; dose 0.08 uM): 0.074 log2 fold change; Dose.FC.LYZ.NS ([1]; dose 0.40 uM): 0.087 log2 fold change; Dose.FC.LYZ.NS ([1]; dose 2.00 uM): 0.089 log2 fold change; Dose.FC.LYZ.NS ([1]; dose 10.00 uM): −0.027 log2 fold change; Z.LYZ.NS ([1]; dose 0.08 uM): 0.642; Z.LYZ.NS ([1]; dose 0.40 uM): 0.756; Z.LYZ.NS ([1]; dose 2.00 uM): 0.778; Z.LYZ.NS ([1]; dose 10.00 uM): −0.235; Dose.FC.LYZ.S ([2]; dose 0.08 uM): 0.114 log2 fold change; Dose.FC.LYZ.S ([2]; dose 0.40 uM): 0.172 log2 fold change; Dose.FC.LYZ.S ([2]; dose 2.00 uM): 0.108 log2 fold change; Dose.FC.LYZ.S ([2]; dose 10.00 uM): 0.012 log2 fold change; Dose.FC.CTG (ENR+CD organoids; dose 0.08 uM): 0.115 log2 fold change; Dose.FC.CTG (ENR+CD organoids; dose 0.40 uM): 0.254 log2 fold change; Dose.FC.CTG (ENR+CD organoids; dose 2.00 uM): 0.211 log2 fold change; Dose.FC.CTG (ENR+CD organoids; dose 10.00 uM): 0.138 log2 fold change
Cc1ccc(NCCCc2ccccc2)c(N)c1 [JSH-23] | 0.054 | 0.474 | 0.079 | 0.688 | −0.002 | −0.017 | −0.046 | −0.399 | 0.164 | 0.106 | 0.005 | −0.026 | 0.193 | 0.462 | 0.230 | 0.548 | 0.074 | 0.176 | 0.046 | 0.110 | 
CC(C)(C)c1cc(/C=C(\C#N)C(N)=S)cc(C(C)(C)C)c1O [Tyrphostin AG 879] |  | 0.088 |  | −0.680 |  | −0.698 |  | −0.960 |  |  |  |  |  | −0.828 |  | −0.569 |  | −0.554 |  | −0.879 | Dose.FC.LYZ.NS ([1]; dose 0.08 uM): 0.010 log2 fold change; Dose.FC.LYZ.NS ([1]; dose 0.40 uM): −0.078 log2 fold change; Dose.FC.LYZ.NS ([1]; dose 2.00 uM): −0.080 log2 fold change; Dose.FC.LYZ.NS ([1]; dose 10.00 uM): −0.110 log2 fold change; Dose.FC.LYZ.S ([2]; dose 0.08 uM): −0.083 log2 fold change; Dose.FC.LYZ.S ([2]; dose 0.40 uM): −0.084 log2 fold change; Dose.FC.LYZ.S ([2]; dose 2.00 uM): −0.051 log2 fold change; Dose.FC.LYZ.S ([2]; dose 10.00 uM): −0.123 log2 fold change; Dose.FC.CTG (ENR+CD organoids; dose 0.08 uM): −0.347 log2 fold change; Dose.FC.CTG (ENR+CD organoids; dose 0.40 uM): −0.238 log2 fold change; Dose.FC.CTG (ENR+CD organoids; dose 2.00 uM): −0.232 log2 fold change; Dose.FC.CTG (ENR+CD organoids; dose 10.00 uM): −0.368 log2 fold change
Cc1ccc(C(=O)N(CCCN)[C@@H](c2nc3cc(Cl)ccc3c(=O)n2Cc2ccccc2)C(C)C)cc1 [Ispinesib (SB-715992)] | −0.222 | −1.931 | −0.191 | −1.663 | −0.196 | −1.709 | −0.201 | −1.752 | −0.271 | −0.296 | −0.287 | −0.286 | −0.323 | −0.772 | −0.518 | −1.238 | −0.511 | −1.220 | −0.713 | −1.704 | 
